Laboratory results reported in the supplement of paper PMC11451515.

Test system: NOMO1
Assay: cell viability relative to DMSO control; higher = less cytotoxic
Details: 48 h
Method in brief: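 Viability was expressed as a per-plate percentage of DMSO wells, with cell-free wells as background. Leukemia cells (NOMO1 or SEM at 500 cells/well, P12-Ichikawa at 1000 cells/well) were adapted for at least four passages in each medium and seeded in 1536-well plates (5 μl). Library compounds in DMSO were pin-dosed over an 11-point threefold series from 47 μM to 0.79 nM, and CellTiter-Glo One luminescence was read after 48 h at 37°C.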

[1] = HPLM + 10% dialyzed FBS, 0.000781 µM
[2] = HPLM + 10% dialyzed FBS, 0.00234 µM
[3] = HPLM + 10% dialyzed FBS, 0.00702 µM
[4] = HPLM + 10% dialyzed FBS, 0.0211 µM
[5] = HPLM + 10% dialyzed FBS, 0.0632 µM
[6] = HPLM + 10% dialyzed FBS, 0.19 µM
[7] = HPLM + 10% dialyzed FBS, 0.569 µM
[8] = HPLM + 10% dialyzed FBS, 1.71 µM
[9] = HPLM + 10% dialyzed FBS, 5.12 µM
[10] = HPLM + 10% dialyzed FBS, 15.4 µM
[11] = HPLM + 10% dialyzed FBS, 46.1 µM
[12] = RPMI 5 mM glucose + 10% FBS, 0.000781 µM
[13] = RPMI 5 mM glucose + 10% FBS, 0.00234 µM
[14] = RPMI 5 mM glucose + 10% FBS, 0.00702 µM
[15] = RPMI 5 mM glucose + 10% FBS, 0.0211 µM
[16] = RPMI 5 mM glucose + 10% FBS, 0.0632 µM
[17] = RPMI 5 mM glucose + 10% FBS, 0.19 µM
[18] = RPMI 5 mM glucose + 10% FBS, 0.569 µM
[19] = RPMI 5 mM glucose + 10% FBS, 1.71 µM
[20] = RPMI 5 mM glucose + 10% FBS, 5.12 µM
[21] = RPMI 5 mM glucose + 10% FBS, 15.4 µM
[22] = RPMI 5 mM glucose + 10% FBS, 46.1 µM
[23] = RPMI 5 mM glucose + 10% dialyzed FBS, 0.000781 µM
[24] = RPMI 5 mM glucose + 10% dialyzed FBS, 0.00234 µM
[25] = RPMI 5 mM glucose + 10% dialyzed FBS, 0.00702 µM
[26] = RPMI 5 mM glucose + 10% dialyzed FBS, 0.0211 µM
[27] = RPMI 5 mM glucose + 10% dialyzed FBS, 0.0632 µM
[28] = RPMI 5 mM glucose + 10% dialyzed FBS, 0.19 µM
[29] = RPMI 5 mM glucose + 10% dialyzed FBS, 0.569 µM
[30] = RPMI 5 mM glucose + 10% dialyzed FBS, 1.71 µM
[31] = RPMI 5 mM glucose + 10% dialyzed FBS, 5.12 µM
[32] = RPMI 5 mM glucose + 10% dialyzed FBS, 15.4 µM
[33] = RPMI 5 mM glucose + 10% dialyzed FBS, 46.1 µM

Row | SMILES | cell viability [1] | cell viability [2] | cell viability [3] | cell viability [4] | cell viability [5] | cell viability [6] | cell viability [7] | cell viability [8] | cell viability [9] | cell viability [10] | cell viability [11] | cell viability [12] | cell viability [13] | cell viability [14] | cell viability [15] | cell viability [16] | cell viability [17] | cell viability [18] | cell viability [19] | cell viability [20] | cell viability [21] | cell viability [22] | cell viability [23] | cell viability [24] | cell viability [25] | cell viability [26] | cell viability [27] | cell viability [28] | cell viability [29] | cell viability [30] | cell viability [31] | cell viability [32] | cell viability [33]
1 | CN(C)CC[C@H](c1ccc(Cl)cc1)c1ccccn1 | 70.4% | 74% | 78.8% | 77.9% | 75.7% | 77.9% | 88.3% | 79.7% | 81% | 78.8% | 87.1% | 75% | 76.5% | 77.1% | 80.3% | 81.4% | 81.2% | 80.7% | 79.6% | 83.2% | 79.9% | 83.7% | 74% | 88.2% | 83.1% | 85.9% | 81.5% | 86.5% | 95.7% | 89.5% | 89.5% | 91% | 82.8%
2 | COC1=CC=C(C=C1O)C/2=C/C(=O)C3=C(O2)C=C(O)C=C3O | 93.3% | 108% | 108% | 108% | 114% | 100% | 95.3% | 98.4% | 94.4% | 93.9% | 110% | 96.4% | 86% | 82.8% | 87.4% | 94.5% | 93.7% | 96.8% | 88.2% | 95% | 105% | 102% | 91.3% | 90.5% | 85.5% | 100% | 105% | 89.8% | 83.6% | 89.5% | 82.5% | 92.5% | 98.2%
3 | COc1cccc([C@@H](C)NCCCc2ccccc2Cl)c1 | 83% | 104% | 83.2% | 111% | 91.5% | 113% | 95.6% | 110% | 103% | 95.9% | 110% | 84.4% | 86.1% | 87.2% | 97.5% | 93.9% | 88% | 94.7% | 86.1% | 94.8% | 94.6% | 101% | 86.2% | 100% | 92.3% | 84.4% | 100% | 101% | 87.9% | 90% | 111% | 106% | 104%
4 | N#Cc1ccnc(Nc2cc(C3CCN(C4COC4)CC3)cc(N3CCC(F)(F)C3)n2)c1 | 121% | 109% | 119% | 114% | 103% | 110% | 114% | 124% | 127% | 53.2% | 10.6% | 101% | 99.7% | 106% | 106% | 93.6% | 108% | 105% | 102% | 107% | 44.7% | 11.3% | 108% | 91.6% | 110% | 102% | 96.2% | 107% | 98.7% | 108% | 107% | 39.1% | 9.87%
5 | CCN(C(=O)C/1=C(O)/C2=C(C=CC=C2Cl)N(C)C1=O)C3=CC=CC=C3 | 95% | 106% | 97.6% | 99.3% | 87.4% | 84% | 96.6% | 34.9% | 12.5% | 3.29% | 3.67% | 80.5% | 88.8% | 93.4% | 93.8% | 96% | 81% | 90.6% | 43.7% | 15.8% | 2.47% | 2.24% | 96.2% | 89% | 94% | 97.2% | 103% | 83.8% | 91.9% | 53.5% | 22% | 2.48% | 2.14%
6 | CC(C)c1ccc(Cn2ccc3c4c(N)nc(NC5CC5)nc4ccc32)cc1 | 116% | 114% | 116% | 101% | 126% | 123% | 70.2% | 53.1% | 38.8% | 39.3% | 4.39% | 121% | 116% | 125% | 120% | 120% | 130% | 123% | 113% | 100% | 30.9% | 4.9% | 110% | 109% | 104% | 107% | 133% | 124% | 128% | 84.7% | 50.3% | 49.8% | 3.66%
7 | CN1\N=C(N)/C2=C[N]([C@@H]3O[C@H](CO[P](O)(O)=O)[C@@H](O)[C@H]3O)C4=C2C1=NC=N4 | 108% | 111% | 124% | 111% | 104% | 88.6% | 74.6% | 67.7% | 59.5% | 30.1% | 16.2% | 109% | 107% | 112% | 99.9% | 99.2% | 89.6% | 93.7% | 77.3% | 84.1% | 52.1% | 50% | 98.8% | 114% | 104% | 105% | 94.7% | 82.3% | 72.2% | 61.5% | 52.6% | 38% | 30.6%
